# Data reported in US12577231B2, “Androgen receptor PROTACS” (GlaxoSmithKline Intellectual Property Development Limited, priority 2023, dated 2026).
# Biological target: T1, Androgen Receptor protein in human LnCaP cells (Homo sapiens, UniProt P10275, T878A)
# T1 construct: the AR gene was modified, using CRISPR/Cas9 editing, so the expressed AR protein included an 11 amino acid HiBiT tag; endogenous in cells; host or cells: clonal LnCaP derived cell line, endogenous AR gene edited by CRISPR/Cas9
# T1 sequence (P10275 1-920 T878A): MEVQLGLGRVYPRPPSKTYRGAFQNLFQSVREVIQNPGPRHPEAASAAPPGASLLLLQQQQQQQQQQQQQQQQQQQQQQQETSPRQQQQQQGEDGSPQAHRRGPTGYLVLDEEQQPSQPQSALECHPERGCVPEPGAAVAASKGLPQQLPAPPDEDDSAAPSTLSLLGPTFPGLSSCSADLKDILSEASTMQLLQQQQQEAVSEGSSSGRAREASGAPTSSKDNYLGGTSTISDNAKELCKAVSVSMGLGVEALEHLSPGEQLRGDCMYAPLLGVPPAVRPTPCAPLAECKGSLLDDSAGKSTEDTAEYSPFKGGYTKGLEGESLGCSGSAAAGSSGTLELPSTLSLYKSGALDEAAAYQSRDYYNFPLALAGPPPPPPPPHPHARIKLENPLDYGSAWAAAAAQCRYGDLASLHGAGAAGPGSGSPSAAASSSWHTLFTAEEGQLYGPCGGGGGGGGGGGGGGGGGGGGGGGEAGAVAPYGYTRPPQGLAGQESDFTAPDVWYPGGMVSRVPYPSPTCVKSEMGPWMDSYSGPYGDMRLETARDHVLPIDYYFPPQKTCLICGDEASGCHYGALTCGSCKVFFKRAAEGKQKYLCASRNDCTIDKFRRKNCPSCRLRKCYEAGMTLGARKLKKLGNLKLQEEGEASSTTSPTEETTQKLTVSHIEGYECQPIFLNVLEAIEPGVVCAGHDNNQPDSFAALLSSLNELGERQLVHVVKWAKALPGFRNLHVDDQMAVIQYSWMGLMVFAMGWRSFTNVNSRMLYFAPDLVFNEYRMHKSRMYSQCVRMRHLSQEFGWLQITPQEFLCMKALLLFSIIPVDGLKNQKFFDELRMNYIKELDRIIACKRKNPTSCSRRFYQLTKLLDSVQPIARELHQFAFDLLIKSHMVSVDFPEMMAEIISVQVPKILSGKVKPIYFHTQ
# Test: Androgen Receptor Degradation Assay (Nano-Glo HiBiT, LnCaP cells)
# Format: cell-based
# Conditions: 18 h, HiBiT-tagged AR LnCaP cells, 18 h incubation, fitted curve asymptote maximum of degradation, read-out: mean asymptote max
# Method in brief: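 LnCaP cells with CRISPR-knocked-in N-terminal HiBiT tag on endogenous AR, 10,000 cells/well, treated 18 h at 37 °C with PROTACs in an 11-point, 3-fold dilution series. AR quantified by lytic HiBiT luminescence, normalised to DMSO (0%) and cell-free (100%) controls. DC50 from 4-parameter fit (relative) or interpolation (absolute); Dmax is maximal observed degradation.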
row,Structure (SMILES),Dmax [%]
1,"CC1(C)[C@H](NC(=O)c2ccc(N3CCC(CN4CC[C@@H](n5ncc6c(N7CCC(=O)NC7=O)cccc65)C4)CC3)c(F)c2)C(C)(C)[C@H]1Oc1ccc(C#N)c2ncccc12 [Example 36, N-((1r,3r)-3-((8-Cyanoquinolin-5-yl)oxy)-2,2,4,4-tetramethylcyclobutyl)-4-(4-(((R)-3-(4-(2,4-dioxotetrahydropyrimidin-1(2H)-yl)-1H-indazol-1-yl)pyrrolidin-1-yl)methyl)piperidin-1-yl)-3-fluorobenzamide]",≥ 50
2,"CC1(C)[C@H](NC(=O)c2ccc(N3CCC(CN4CCC(n5ccc6c(N7CCC(=O)NC7=O)c(F)ccc65)CC4)CC3)c(F)c2)C(C)(C)[C@H]1Oc1ccc(C#N)c2ncccc12 [Example 51, N-((1r,3r)-3-((8-Cyanoquinolin-5-yl)oxy)-2,2,4,4-tetramethylcyclobutyl)-4-(4-((4-(4-(2,4-dioxotetrahydropyrimidin-1(2H)-yl)-5-fluoro-1H-indol-1-yl)piperidin-1-yl)methyl)piperidin-1-yl)-3-fluorobenzamide]",≥ 50
3,"COc1cc(O[C@H]2C(C)(C)[C@H](NC(=O)c3ccc(N4CCC(CN5CCC(n6ncc7c(N8CCC(=O)NC8=O)cccc76)CC5)CC4)cc3)C2(C)C)ccc1C#N [Example 15, N-((1r,3r)-3-(4-Cyano-3-methoxyphenoxy)-2,2,4,4-tetramethylcyclobutyl)-4-(4-((4-(4-(2,4-dioxotetrahydropyrimidin-1(2H)-yl)-1H-indazol-1-yl)piperidin-1-yl)methyl)piperidin-1-yl)benzamide]",≥ 50
4,"CC1(C)[C@H](NC(=O)c2ccc(N3CCC(O)(CN4CCC(n5ncc6c(N7CCC(=O)NC7=O)cccc65)CC4)CC3)c(F)c2)C(C)(C)[C@H]1Oc1ccc(C#N)c2ncccc12 [Example 48, N-((1r,3r)-3-((8-Cyanoquinolin-5-yl)oxy)-2,2,4,4-tetramethylcyclobutyl)-4-(4-((4-(4-(2,4-dioxotetrahydropyrimidin-1(2H)-yl)-1H-indazol-1-yl)piperidin-1-yl)methyl)-4-hydroxypiperidin-1-yl)-3-fluorobenzamide]",≥ 50
5,"CC1(C)[C@H](NC(=O)c2ccc(N3CCC(CN4CCC(n5ncc6c(N7CCC(=O)NC7=O)nccc65)CC4)CC3)c(F)c2)C(C)(C)[C@H]1Oc1ccc(C#N)c2ncccc12 [Example 39, N-((1r,3r)-3-((8-Cyanoquinolin-5-yl)oxy)-2,2,4,4-tetramethylcyclobutyl)-4-(4-((4-(4-(2,4-dioxotetrahydropyrimidin-1(2H)-yl)-1H-pyrazolo[4,3-c]pyridin-1-yl)piperidin-1-yl)methyl)piperidin-1-yl)-3-fluorobenzamide]",≥ 50
